Measured values reported in US12516038B2, “Inhibitors of antigen presentation by HLA-DR” (Janssen Pharmaceutica NV, priority 2020, dated 2026).
pIC50: −log10 of the molar value.

What was measured:
HLA-DRB1*0401 = HLA-DRB1*0401 (Homo sapiens (Human), UniProt P01903+P01911, A100K/A169T/DEL228-266/F76Y/I96L/K127E/L162R/M171V/N62H/P40V/Q125Y/R42H/S133A/S149N/S66Y/V115G/V209L/W38E); assay: HLA-DR4 HTRF assay; type: binding; details: inhibition of loading of Alexa Fluor 647-labeled Cit-CII peptide onto HLA-DR4 (CLIP cleaved)
Outline: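 HLA-DRB1*04:01 construct (α/β fused to human Fc, CLIP pre-cleaved by HRV3C overnight at 4° C) at 3 nM was preincubated 45 min with compound and 1 nM anti-Fc-Tb donor, then 40 nM Alexa647-Cit-CII1236-1249 peptide added. After 90 min at 37° C, the 665/620 nm HTRF ratio gave % inhibition; IC50 by nonlinear regression.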

[1] = test system: HLA-DR4 restricted mouse T cell hybridoma line (DR4.CII.36.8) with HLA-DRB1*04:01-expressing Boleth cells; assay: HLA-DR4-restricted peptide-specific T cell-based assay (hybridoma assay); details: 6 h, inhibition of IL-2 production, CII259-273 peptide presented by Boleth cells
Outline: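 Boleth cells (HLA-DRB1*04:01 B cell line) pre-incubated with compound 1 h at 37° C. in DMEM/1% FCS, then DR4.CII.36.8 mouse T cell hybridoma (CII259-273-specific) added for 6 h with CII259-273 peptide. Supernatant mouse IL-2 by AlphaLISA; IC50 by 4-PL fit of 8-point duplicate titrations.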

Row | SMILES | pIC50 (HLA-DRB1*0401) | pIC50 ([1]; Mus musculus, T-cell) | pIC50 [1]
1 | COc1ccccc1[C@@H](Oc1ccc2c(c1)OCCC2=O)c1ccncc1 (single isomer, unassigned) [Example 14b, (*S)-7-((2-Methoxyphenyl)(pyridin-4-yl)methoxy)chroman-4-one] | 5.72 | 4.96 | 
2 | N#Cc1cc(O[C@@H](c2ccncc2)c2ccc(C(N)=O)cc2)cc2c1C(=O)CCO2 (single isomer, unassigned) [Example 101a, (*R)-4-(((5-cyano-4-oxochroman-7-yl)oxy)(pyridin-4-yl)methyl)benzamide] | 6.02 | < 4.82 | 
3 | NC(=O)c1ccc(C(Oc2ccc3c(c2)OCCC3=O)c2ccnc(C(F)(F)F)c2)cc1 (single isomer, unassigned) [Example 18a, (*R)-4-(((4-oxochroman-7-yl)oxy)(2-(trifluoromethyl)pyridin-4-yl)methyl)benzamide] | 5.85 | < 4.82 | 
4 | COc1ccc([C@H](Oc2c(F)cc3c(c2C)OCCC3=O)c2ccncc2)cc1F (single isomer, unassigned) [Example 97a, (*R)-6-fluoro-7-((3-fluoro-4-methoxyphenyl)(pyridin-4-yl)methoxy)-8-methylchroman-4-one] | 6.39 | 5.28 | 
5 | NC(=O)c1ccc([C@H](Oc2ccc3c(c2)OCCC3=O)c2ccncn2)cc1 (single isomer, unassigned) [Example 33b, (*S)-4-(((4-Oxochroman-7-yl)oxy)(pyrimidin-4-yl)methyl)benzamide] | 6.23 | < 4.82 | 
6 | Cc1cc([C@@H](Oc2ccc3c(c2C)OC(C)(C)CC3=O)c2ccc(C(N)=O)cc2)cc(C)n1 (single isomer, unassigned) [Example 112b, (*S)-4-((2,6-dimethylpyridin-4-yl)((2,2,8-trimethyl-4-oxochroman-7-yl)oxy)methyl)benzamide] | 6.22 | 5.40 | 
7 | Cc1cc([C@H](Oc2ccc3c(c2C(C)C)OCCC3=O)c2ccc(C(N)=O)cc2)cc(C)n1 (single isomer, unassigned) [Example 106a, (*R)-4-((2,6-dimethylpyridin-4-yl)((8-isopropyl-4-oxochroman-7-yl)oxy)methyl)benzamide] | 6.33 | 7.24 | 
8 | Cc1c(O[C@@H](c2ccncc2)c2cccc(S(C)(=O)=O)c2)c(F)cc2c1OCCC2=O (single isomer, unassigned) [Example 105b, (*S)-6-fluoro-8-methyl-7-((3-(methylsulfonyl)phenyl)(pyridin-4-yl)methoxy)chroman-4-one] | 6.72 | 5.22 | 
9 | CCc1cc(O[C@H](c2ccncc2)c2ccc(C(N)=O)cc2)cc2c1C(=O)CCO2 (single isomer, unassigned) [Example 99b, (*S)-4-(((5-ethyl-4-oxochroman-7-yl)oxy)(pyridin-4-yl)methyl)benzamide] | < 4.05 | 5.26 | 
10 | CC(C)c1c(O[C@H](c2ccc(C(N)=O)cc2)c2cccc(C#N)c2)ccc2c1OCCC2=O (single isomer, unassigned) [Example 107a, (*R)-4-((3-cyanophenyl)((8-isopropyl-4-oxochroman-7-yl)oxy)methyl)benzamide] | 6.03 | 5.00 | 
11 | Cc1c(O[C@H](c2ccncc2)c2cccc(F)c2)c(F)cc2c1OCCC2=O (single isomer, unassigned) [Example 96a, (*R)-6-fluoro-7-((3-fluorophenyl)(pyridin-4-yl)methoxy)-8-methylchroman-4-one] | 6.52 | 4.96 | 
12 | NC(=O)c1ccc([C@@H](Oc2ccc3c(c2)OCCC3=O)c2ccccn2)cc1 (single isomer, unassigned) [Example 32a, (*R)-4-(((4-oxochroman-7-yl)oxy)(pyridin-2-yl)methyl)benzamide] | 5.44 | 5.09 | 
13 | C[C@H]1CC(=O)c2ccc(O[C@H](c3ccncc3)c3ccc(C(N)=O)cc3)cc2O1 (single isomer, unassigned) [Example 39d, 4-((*S)—(((*S)-2-Methyl-4-oxochroman-7-yl)oxy)(pyridin-4-yl)methyl)benzamide] | 6.00 | 4.82 | 
14 | Cc1cc([C@@H](Oc2cc3c(cc2F)C(=O)CCO3)c2ccc(C(N)=O)cc2)cc(C)n1 (single isomer, unassigned) [Example 109b, (*S)-4-((2,6-dimethylpyridin-4-yl)((6-fluoro-4-oxochroman-7-yl)oxy)methyl)benzamide] | 6.64 |  | 4.92
15 | Cc1c(O[C@@H](c2ccc(C(N)=O)cc2)c2cccc(C#N)c2)c(F)cc2c1OCCC2=O (single isomer, unassigned) [Example 92b, (*S)-4-((3-cyanophenyl)((6-fluoro-8-methyl-4-oxochroman-7-yl)oxy)methyl)benzamide] | 6.72 | < 4.82 | 
16 | NC(=O)c1ccc([C@H](Oc2ccc3c(c2)OCCC3=O)c2ccncc2)c2ccccc12 (single isomer, unassigned) [Example 98a, (*R)-4-(((4-oxochroman-7-yl)oxy)(pyridin-4-yl)methyl)-1-naphthamide] | 5.05 | 5.23 | 
17 | Cc1c(O[C@@H](c2ccncc2)c2cccc(F)c2)c(F)cc2c1OCCC2=O (single isomer, unassigned) [Example 96b, (*S)-6-fluoro-7-((3-fluorophenyl)(pyridin-4-yl)methoxy)-8-methylchroman-4-one] | 6.33 | < 4.82 | 
18 | Cc1c(O[C@@H](c2ccc(C(N)=O)cc2)c2ccnc(CCC(=O)O)c2)ccc2c1OCCC2=O (single isomer, unassigned) [Example 87b] | 6.29 | < 4.82 | 
19 | NC(=O)c1ccc([C@@H](Oc2ccc3c(c2)OCCC3=O)c2ccncc2F)cc1 (single isomer, unassigned) [Example 20a, (*R)-4-((3-fluoropyridin-4-yl)((4-oxochroman-7-yl)oxy)methyl)benzamide] | 5.92 | 5.16 | 
20 | Cc1cc([C@H](Oc2ccc3c(c2)OCCC3=O)c2ccncc2)ccc1C(N)=O (single isomer, unassigned) [Example 35b, (*S)-2-methyl-4-(((4-oxochroman-7-yl)oxy)(pyridin-4-yl)methyl)benzamide] | 6.08 | 5.28 | 
21 | Cc1c(O[C@@H](c2ccccc2)c2ccc(C(N)=O)cc2)ccc2c1OCCC2=O (single isomer, unassigned) [Example 69b, (*S)-4-(((8-Methyl-4-oxochroman-7-yl)oxy)(phenyl)methyl)benzamide] | 5.68 | < 4.82 | 
22 | C[C@H]1COc2cc(O[C@@H](c3ccncc3)c3ccc(C(N)=O)cc3)ccc2C1=O (single isomer, unassigned) [Example 44c, 4-((*R)—(((*S)-3-Methyl-4-oxochroman-7-yl)oxy)(pyridin-4-yl)methyl)benzamide] | 5.89 | < 4.82 | 
23 | CC[C@@H]1CC(=O)c2ccc(O[C@H](c3ccncc3)c3ccc(C(N)=O)cc3)cc2O1 (single isomer, unassigned) [Example 41a, 4-((*S)—(((*R)-2-ethyl-4-oxochroman-7-yl)oxy)(pyridin-4-yl)methyl)benzamide] | 5.92 | < 4.82 | 
24 | NC(=O)c1ccc([C@H](Oc2ccc3c(c2)OCCC3=O)c2ccc(Cl)cc2)cc1 (single isomer, unassigned) [Example 30b, (*S)-4-((4-Chlorophenyl)((4-oxochroman-7-yl)oxy)methyl)benzamide] | 5.92 | 5.19 | 
25 | Cc1cc([C@@H](Oc2ccc3c(c2)OCCC3=O)c2ccncc2)ccc1C(N)=O (single isomer, unassigned) [Example 35a, (*R)-2-methyl-4-(((4-oxochroman-7-yl)oxy)(pyridin-4-yl)methyl)benzamide] | 6.02 | < 4.82 | 
26 | Cc1c(O[C@@H](c2ccncc2)c2cccc(CNC(N)=O)c2)ccc2c1OCCC2=O (single isomer, unassigned) [Example 81a, (*R)-1-(3-(((8-methyl-4-oxochroman-7-yl)oxy)(pyridin-4-yl)methyl)benzyl)urea] | 6.16 | 4.82 | 
27 | O=C1CCOc2cc(O[C@H](c3ccncc3)c3ccc(OCc4ccccc4)cc3)ccc21 (single isomer, unassigned) [Example 16b, 7-((4-(benzyloxy)phenyl)(pyridin-4-yl)methoxy)chroman-4-one] | 5.00 | < 4.82 | 
28 | Cc1c(O[C@H]2CCc3cnccc32)ccc2c1OCCC2=O (single isomer, unassigned) [Example 124b, (*S)-7-((6,7-dihydro-5H-cyclopenta[c]pyridin-5-yl)oxy)-8-methylchroman-4-one] | 6.13 | 5.22 | 
29 | Cc1c(O[C@H](c2ccc(C(N)=O)cc2)c2ccc(S(C)(=O)=O)cc2)c(F)cc2c1OCCC2=O (single isomer, unassigned) [Example 93a, (*R)-4-(((6-fluoro-8-methyl-4-oxochroman-7-yl)oxy)(4-(methylsulfonyl)phenyl)methyl)benzamide] | 6.72 | 5.22 | 
30 | CC[C@H]1CC(=O)c2ccc(OCc3ccncc3OC)cc2O1 (single isomer, unassigned) [Example 119b, (*S)-2-ethyl-7-((3-methoxypyridin-4-yl)methoxy)chroman-4-one] | 6.16 | < 4.82 | 
